# Assay results published in patent publication US8603762B2 (priority 2008, dated 2013).
# Read-outs that look alike come from different tables or passages of the source.
# Tests used:
# Assay type in all cases: cell-based
# [1] = tested on: HEK293T Gα16gustducin44 cells (that do not express TAS2R46)
# Description: (§1) At day 0, the HEK293T cell line expressing Gα16-gustducin44 and a TAS2R46 bitter taste receptor formed as described in examples 2b or 2c was seeded in antibiotic-free growth medium (standard DMEM with 10% (v/v) heat-inactivated fetal bovine serum, 2 mM L-glutamine[…]) into black wall/clear bottom 96-well plates, coated with poly(ethylenimine) (0.005% v/v) at a concentration of 15,000 cells per well and incubated for 48 hours in humidified atmosphere (37° C., 5% CO2).
# (§2) At the time of the assay, the growth medium was discarded and the cells were in humidified atmosphere (37° C., 5% CO2) for 1 hour with 50 μl of loading buffer consisting of 1.5 μM Fluo-4 AM and […] probenicid (Sigma-Aldrich, St. Louis, Mo., US) in DMEM.
# (§3) Afterwards, the 96-well plate was washed 5 times with 100 μl of assay buffer (130 mM NaCl, 5 mM KCl, 10 mM HEPES, 2 mM CaCl2, and 5 mM dextrose, pH 7.4) per well, using an automated plate washer (BioTek). The plate was further incubated for 30 minutes at room temperature in the dark to allow for complete de-esterification of the Fluo-4. Afterwards the plate was washed 5 times with 100 μl of assay buffer per well, and reconstituted with 100 μl of assay buffer per well.
# (§4) For assay reading, the plate was placed in a Fluorometric Imaging Plate Reader (FLIPR) (FLIPR-TETRA™, Molecular Devices, Sunnyvale, Calif., US), and receptor activation was initiated by addition of 20 μl of a tenfold concentrated agonist stock solution (to give the desired agonist end concentration when added to the 180 microliter assay buffer volume), which was prepared in assay buffer.
# (§5) Fluorescence was continuously monitored for 20 seconds to give a signal baseline (averaged to give F0) prior to agonist addition and for 120 seconds after agonist addition. The change in signal divided by F0 gives ΔF/F0 indicated in the table, with ΔF being the maximum signal occurring within the 120 seconds minus the minimum signal (occurring within the 120 seconds after agonist addition.
# (§6) The obtained calcium signals were corrected for the response of cells expressing only the G Protein α subunit (Gα16-gustducin44) and normalized to the fluorescence of cells prior to the stimulus using ΔF/F0 (Fmax−Fmin/F0).
# [2] = tested on: more than 15 human TAS2Rs; assay: Activation of other human TAS2Rs; settings: more than 15 human TAS2Rs tested
# [3] = target: T1, human TAS2R46 (Homo sapiens, UniProt P59540); assay: Fluo-4 calcium assay, HEK293T/Gα16-gustducin44 cells transiently expressing TAS2R46
# T1 construct: RSS tag (first 45 amino acids of rat somatostatin receptor subtype 3, plus EcoRI site residues) (N); expressed in transfected cells
# T1 sequence (P59540 with tags, fused parts or gaps): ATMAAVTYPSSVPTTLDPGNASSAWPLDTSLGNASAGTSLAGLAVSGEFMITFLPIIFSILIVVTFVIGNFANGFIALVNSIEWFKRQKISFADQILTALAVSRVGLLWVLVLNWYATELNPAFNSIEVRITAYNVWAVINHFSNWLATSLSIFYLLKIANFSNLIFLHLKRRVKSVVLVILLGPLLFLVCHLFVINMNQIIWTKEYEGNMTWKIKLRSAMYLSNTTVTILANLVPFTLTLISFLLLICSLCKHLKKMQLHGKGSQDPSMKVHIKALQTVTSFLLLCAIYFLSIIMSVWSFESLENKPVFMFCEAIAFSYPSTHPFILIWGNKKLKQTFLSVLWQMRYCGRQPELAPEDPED
# Description: In a second tube, 0.3 μl of Lipofectamine 2000 was diluted in 12.5 μl of DMEM and incubated for 5 min at room temperature. After the 5 min, both solutions were mixed and incubated for 20 min at RT. […] This mixture was then replaced with an antibiotic-free, serum-containing DMEM. […]
# as §4
# Fluorescence was continuously monitored for 20 seconds to give a signal baseline (averaged to give F0) prior to agonist addition and for 120 seconds after agonist addition. […]
# as §6
# [4] = target: T1, human TAS2R46
# Description: as §1, §2, §3, §4, §5, §6
smiles,measurement,setting,value
O=C1C[C@@H]2OCC=C3CN4CC[C@]56c7ccccc7N1[C@H]5[C@H]2[C@H]3C[C@H]46 [strychnine],Neg. Control ΔF/F0,"[1]; strychnine 0.977 μM, cells without TAS2R46",0.060
same,Neg. Control ΔF/F0,"[1]; strychnine 1.953 μM, cells without TAS2R46",0.065
same,Neg. Control ΔF/F0,"[1]; strychnine 3.906 μM, cells without TAS2R46",0.071
same,Neg. Control ΔF/F0,"[1]; strychnine 7.813 μM, cells without TAS2R46",0.070
same,Neg. Control ΔF/F0,"[1]; strychnine 15.63 μM, cells without TAS2R46",0.063
same,Neg. Control ΔF/F0,"[1]; strychnine 31.25 μM, cells without TAS2R46",0.088
same,Neg. Control ΔF/F0,"[1]; strychnine 62.50 μM, cells without TAS2R46",0.091
same,Neg. Control ΔF/F0,"[1]; strychnine 125.0 μM, cells without TAS2R46",0.088
same,Neg. Control ΔF/F0,"[1]; strychnine 250.0 μM, cells without TAS2R46",0.181
COc1ccc2c(c1)[C@]13CCCC[C@@H]1[C@H](C2)N(C)CC3 [dextromethorphan],activation of other human TAS2Rs (in words),[2],not to be activated
same,calcium signaling upon addition of agonist (in words),[3],significant concentration-dependent increase in calcium signaling
same,calcium signaling upon addition of agonist (in words),[4]; cells stably expressing human TAS2R46,significant increase in calcium signaling
same,EC50,"[4]; stable cell line, nonlinear regression of ΔF/F0, read-out: calculated EC50 value for TAS2R46",31 µM
same,Neg. Control ΔF/F0,"[1]; dextromethorphan 0.254 μM, cells expressing only Gα16gustducin44",0.050
same,Neg. Control ΔF/F0,"[1]; dextromethorphan 0.508 μM, cells expressing only Gα16gustducin44",0.044
same,Neg. Control ΔF/F0,"[1]; dextromethorphan 1.016 μM, cells expressing only Gα16gustducin44",0.053
same,Neg. Control ΔF/F0,"[1]; dextromethorphan 2.031 μM, cells expressing only Gα16gustducin44",0.038
same,Neg. Control ΔF/F0,"[1]; dextromethorphan 4.063 μM, cells expressing only Gα16gustducin44",0.041
same,Neg. Control ΔF/F0,"[1]; dextromethorphan 8.125 μM, cells expressing only Gα16gustducin44",0.044
same,Neg. Control ΔF/F0,"[1]; dextromethorphan 16.250 μM, cells expressing only Gα16gustducin44",0.067
same,Neg. Control ΔF/F0,"[1]; dextromethorphan 65.000 μM, cells expressing only Gα16gustducin44",0.312
same,change in signal in the negative control (in words),[1]; host cells expressing only Gα16-gustducin44,No significant change
